From PMC4938718 (Structure (London, England : 1993), 2016) come the findings set out here.

Experiment [1] concerns the target T1, HisF subunit of imidazole glycerol phosphate synthase (IGPS) (Thermotoga maritima, UniProt Q9X0C6).
T1 sequence (Q9X0C6 1-253): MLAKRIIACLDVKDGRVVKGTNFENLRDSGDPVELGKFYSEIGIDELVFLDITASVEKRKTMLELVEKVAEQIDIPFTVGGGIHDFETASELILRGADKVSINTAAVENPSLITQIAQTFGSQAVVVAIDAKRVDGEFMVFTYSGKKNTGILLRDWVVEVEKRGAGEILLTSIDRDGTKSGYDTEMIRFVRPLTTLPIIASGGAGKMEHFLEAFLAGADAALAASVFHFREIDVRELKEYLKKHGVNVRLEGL
T1 sequence (Q9X0C8 1-201 partner): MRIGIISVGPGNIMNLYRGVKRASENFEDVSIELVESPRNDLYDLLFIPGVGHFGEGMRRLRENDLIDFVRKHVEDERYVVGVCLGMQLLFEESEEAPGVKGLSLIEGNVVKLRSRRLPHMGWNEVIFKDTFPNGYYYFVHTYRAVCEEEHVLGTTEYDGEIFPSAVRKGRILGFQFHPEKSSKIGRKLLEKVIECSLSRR
The experiment can be described thus: NMR lineshape analysis of titration. In kind it is binding.

For experiment [2], the target named is T2, HisH subunit of imidazole glycerol phosphate synthase (IGPS) (Thermotoga maritima, UniProt Q9X0C8).
T2 sequence (Q9X0C8 1-201): T1 sequence (Q9X0C8 1-201 partner)
T2 sequence (Q9X0C6 1-253 partner): T1 sequence (Q9X0C6 1-253)
Kind of experiment: covalent labeling, loss of free Cys thiol confirmed by DTNB assay. In kind it is binding.

As a reminder, the Kd is a measure of binding affinity in units of concentration. A higher Kd goes with weaker binding. Molecule `NC(=O)c1ncn([C@@H]2O[C@H](COP(=O)(O)O)[C@@H](O)[C@H]2O)c1N` [AICAR] had a Kd in experiment [1] of 1500 ± 200 µM.
Consider `N[C@H](C(=O)O)[C@@H]1CC(Cl)=NO1` [acivicin], for which the “covalent labeling, loss of free Cys thiol confirmed by DTNB assay” value in experiment [2] is reported as “Covalent modification of IGPS with the non-hydrolyzable Gln analogue acivicin was achieved by incubating IGPS with two molar equivalents”.
